ChEMBL document CHEMBL1201862, “PubChem BioAssay data set” (2004)
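Assay format: 96-well plates, 48-hour exposure. At the GI50, growth is halved.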 The source made the active and inactive calls. Rule as the data show it: active = GI50 up to about 1.1 µM and inactive = higher.

What was measured:
Test in all cases: DTP human tumour cell line panel, 48 h
A498 = tested on: A498
ACHN = tested on: ACHN
CAKI-1 = tested on: CAKI-1
DU-145 = tested on: DU-145
HOP-92 = tested on: HOP-92
K562 = tested on: K562
KM12 = tested on: KM12
M14 = tested on: M14
MCF7 = tested on: MCF7
MDA-MB-435 = tested on: MDA-MB-435
NCI/ADR-RES = tested on: NCI/ADR-RES
OVCAR-3 = tested on: OVCAR-3
RXF 393 = tested on: RXF 393
SF-295 = tested on: SF-295
SK-MEL-2 = tested on: SK-MEL-2
SK-MEL-5 = tested on: SK-MEL-5
SN12C = tested on: SN12C
SNB-75 = tested on: SNB-75
SR = tested on: SR
UO-31 = tested on: UO-31

SMILES | GI50 (A498) | GI50 (ACHN) | GI50 (CAKI-1) | GI50 (DU-145) | GI50 (HOP-92) | GI50 (K562) | GI50 (KM12) | GI50 (M14) | GI50 (MCF7) | GI50 (MDA-MB-435) | GI50 (NCI/ADR-RES) | GI50 (OVCAR-3) | GI50 (RXF 393) | GI50 (SF-295) | GI50 (SK-MEL-2) | GI50 (SK-MEL-5) | GI50 (SN12C) | GI50 (SNB-75) | GI50 (SR) | GI50 (UO-31)
Cc1ccnc2nc(-c3ccc(F)cc3)cc(O)c12 | 63.2 µM (inactive) | 68.1 µM (inactive) | 36.2 µM (inactive) | > 69.5 µM (inactive) | 51.1 µM (inactive) | 5.55 µM (inactive) | 7.23 µM (inactive) | 28.4 µM (inactive) | 24.5 µM (inactive) | 3.15 µM (inactive) | > 86.3 µM (inactive) | 67.6 µM (inactive) | > 82.8 µM (inactive) | 86.3 µM (inactive) | 57.3 µM (inactive) | 22.6 µM (inactive) | > 100 µM (inactive) | 29.6 µM (inactive) | 3.82 µM (inactive) | > 70.5 µM (inactive)
CCOC(=O)c1nc2ccccc2nc1Nc1ccc(F)cc1 | 20.9 µM (inactive) | 27.5 µM (inactive) | 39.5 µM (inactive) | 42.2 µM (inactive) | 15.7 µM (inactive) | > 100 µM (inactive) | > 100 µM (inactive) | > 100 µM (inactive) | > 60.8 µM (inactive) | > 100 µM (inactive) | 16.7 µM (inactive) | > 72.4 µM (inactive) | 11.9 µM (inactive) | 12.9 µM (inactive) | 23.6 µM (inactive) | > 100 µM (inactive) | 40.6 µM (inactive) | 3.52 µM (inactive) | > 100 µM (inactive) | > 94.4 µM (inactive)
O=C(N[C@@H](Cc1ccccc1)B(O)O)[C@H](Cc1cccc2ccccc12)NC(=O)N1CCOCC1 | 0.00261 µM (active) | 0.0105 µM (active) | 0.00555 µM (active) | 0.00627 µM (active) | 0.00233 µM (active) | 0.00371 µM (active) | 0.00185 µM (active) | 0.00168 µM (active) | 0.000476 µM (active) | 0.000298 µM (active) | 0.938 µM (active) | 0.000891 µM (active) | 0.00167 µM (active) | 0.00478 µM (active) | 0.00125 µM (active) | 0.00154 µM (active) | 0.00371 µM (active) | < 0.01 µM (active) | 0.00131 µM (active) | 0.232 µM (active)
CCCCc1ccc(Nc2nc(S)c3ncn(COCCO)c3n2)cc1 | > 100 µM (inactive) | 43.1 µM (inactive) | > 100 µM (inactive) | 56.9 µM (inactive) | 27.4 µM (inactive) | 15.5 µM (inactive) | 38 µM (inactive) | 44.4 µM (inactive) | 24.2 µM (inactive) | 57.4 µM (inactive) | > 100 µM (inactive) | 21 µM (inactive) | 56 µM (inactive) | 64.7 µM (inactive) | 23.4 µM (inactive) | 62.1 µM (inactive) | 39.7 µM (inactive) | 41 µM (inactive) | 24 µM (inactive) | > 100 µM (inactive)
CC1OC(OC2C(OC(=O)[C@]34CCC(C)(C)C[C@H]3C3=CC[C@@H]5[C@@]6(C)CC[C@H](OC7OC(CO)C(O)C(O)C7OC7OC(CO)C(O)C(O)C7O)C(C)(C)[C@@H]6CC[C@@]5(C)[C@]3(C)CC4)OCC(O)C2O)C(O)C(OC2OCC(O)C(O)C2O)C1OC1OCC(O)C(OC2OCC(O)C(O)C2O)C1O (stereo not given in full) | 2.24 µM (inactive) | 9.4 µM (inactive) | 6.67 µM (inactive) | 10.5 µM (inactive) | 6.84 µM (inactive) | 6.55 µM (inactive) | 7.31 µM (inactive) | 2.42 µM (inactive) | 7.71 µM (inactive) | 2.26 µM (inactive) | 11 µM (inactive) | 23.4 µM (inactive) | 16.4 µM (inactive) | 7.62 µM (inactive) | 8.57 µM (inactive) | 9.4 µM (inactive) | 2.26 µM (inactive) | 18.7 µM (inactive) | 5.19 µM (inactive) | 2.14 µM (inactive)
CCCCCCCCCc1cc(O)c(O)cc1CCCCCCCCC | > 10 µM (inactive) | > 10 µM (inactive) | > 10 µM (inactive) | > 10 µM (inactive) | > 10 µM (inactive) | > 10 µM (inactive) | > 10 µM (inactive) | > 10 µM (inactive) | > 10 µM (inactive) | > 10 µM (inactive) | > 10 µM (inactive) | > 10 µM (inactive) | > 10 µM (inactive) | > 10 µM (inactive) | > 10 µM (inactive) | > 10 µM (inactive) | > 10 µM (inactive) | > 10 µM (inactive) | > 10 µM (inactive) | > 10 µM (inactive)
